Entries after “also recorded” stand apart in the source; their conditions may differ. Where two headings read alike, the source gives them in different places. One block for each compound: values may come before it.
How the values were obtained:
Type in all cases: cell-based
mitochondrial complex I = mitochondrial complex I (Homo sapiens, UniProt O75251+O75306+P03886); assay: Complex I-dependent oxygen consumption (OCR), Seahorse XF-96, HCT116 cells; conditions: HCT116, 24 hr
Procedure: (§1) FIG. 2. Effects of HU and Mito-HUs on the oxygen consumption by mitochondrial complexes I and III (A) Dose-dependent effects of HU, Mito10-HU, Mito12-HU, Mito14-HU, Mito16-HU, and Mito20-HU on complex I- and complex III-dependent oxygen consumption were measured in HCT116 cells. HCT116 cells were treated with HU or Mito-HUs as indicated for 24 hr. Mitochondrial complex I activity (left) and complex III activity (right) were monitored by a Seahorse XF-96 analyzer. Either rotenone (complex I inhibitor) or antimycin A (complex III inhibitor) was acutely added and OCR assayed immediately. (B) The mitochondrial complex I (left) and III (right) dependent oxygen consumption (calculated as rotenone or antimycin A inhibitable OCR) are plotted against concentration of HU and Mito-HUs. Dashed lines represent the fitting curves used for determination of the IC50 values. Data shown are the means G SD.
(§2) Mitochondrial oxygen consumption was measured using the Seahorse XF-96 Extracellular Flux Analyzer (Agilent, North Billerica, MA) (Cheng et al., 2013, 2016; Boyle et al., 2018; Weinberg and Chandel, 2015). After cells were treated with HU or Mito-HUs for 24 hr, the OCR-based assessment of mitochondrial complex activities was carried out on acutely permeabilized cells in the presence of different mitochondrial substrates, i.e., pyruvate/malate for complex I and duroquinol for complex III (Cheng et al., 2016, 2019; Salabei et al., 2014; Wheaton et al., 2014). Rotenone, malonate, and antimycin A (Sigma-Aldrich, St. Louis, MO) were used as specific inhibitors of mitochondrial complexes I, II, and III, respectively. Briefly, cells that were intact after treatments were immediately permeabilized using the Seahorse XF Plasma Membrane Permeabilizer (Agilent). The mitochondrial complex I-induced OCR was assayed in mannitol and sucrose buffer (Salabei et al., 2014) containing 10 mM pyruvate and 1.5 mM malate (substrates for complex I) and 10 mM malonate (which inhibits complex II activities). The mitochondrial complex III-driven OCR was assayed in a mannitol and sucrose buffer containing 0.5 mM duroquinol (substrate for complex III) as well as […] and 10 mM malonate (which inhibit both complex I and II activities). The IC50 values were determined as previously reported (Cheng et al., 2019).

[1] = biological target: T1, mitochondrial complex III (Homo sapiens, UniProt P00156+P47985); assay: Complex III-dependent oxygen consumption (OCR), Seahorse XF-96, HCT116 cells; conditions: HCT116, 24 hr
T1 construct: other: mean ± SD; HCT116, 24 hr treatment; Complex III activity (OCR, % of control); other: 0.1 μM, 24 hr, HCT116; n = 4; other: 0.5 μM, 24 hr, HCT116; other: 0.75 μM, 24 hr, HCT116; other: 1 μM, 24 hr, HCT116; Compl
Procedure: as §1, §2

[2] = system: HCT116 human colon cancer cells; assay: Cell proliferation (cell confluence), IncuCyte Live-Cell Analysis system; conditions: for IC50: Homo sapiens, HCT-116, at ~90% confluence of control; for IC50 / inhibition of proliferation of HCT116 cells: HCT116; for Cell Confluence (%): when control cells reached ~90% confluence, n = 4
From the text: FIG. 1. Effects of HU and Mito-HUs on proliferation of HCT116 human colon cancer cells (A) Effects of HU and Mito-HUs on the proliferation of HCT116 cells were monitored in the IncuCyte Live-Cell Analysis system. The IncuCyte Analyzer provides real-time updates on cell confluence, based on segmentation of high definition-phase contrast images. Representative cell images were shown as segmentation mask illustrated in brown when control cells reached 90% confluence (vertical solid black line). (B) The IC50 values were determined at the point at which control cells reached ˜90% confluence (vertical solid black line). Relative cell confluence (control is taken as 100%) is plotted against concentration. Dashed lines represent the fitting curves used to determine the IC50 values as indicated. Data shown are the means & SD.
(§3) The following cell lines were obtained from the American Type Culture Collection (Manassas, VA), where they were regularly authenticated: HCT116 (ATCC Cat #CRL-247, human colon cancer cells) and MiaPaCa-2 (ATCC Cat #CRL-1420, human pancreatic cancer cells). All cells were cultured in a humidified incubator at 37° C. and 5% carbon dioxide. HCT116 cells were maintained in RPMI 1640 medium (Thermo Fisher Scientific, Cat #11875), supplemented with 10% fetal bovine serum. MiaPaCa-2 cells were maintained in Dulbecco's Modified Eagle Medium (Thermo Fisher Scientific, Waltham, MA; Cat #11965) supplemented with 10% fetal bovine serum. All cells were stored in liquid nitrogen and used within 20 passages after thawing.
(§4) The IncuCyte Live-Cell Analysis system (Essen Bioscience Inc., Ann Arbor, MI) was used to monitor cell proliferation (Cheng et al., 2013, 2016; Boyle et al., 2018). As shown in previous publications (Cheng et al., 2013, 2016), this imaging system is probe-free and noninvasive, and enables continuous monitoring of cell confluence over several days. The increase in the percentage of cell confluence was used as a surrogate marker of cell proliferation. In a 96-well plate, cells were plated at 1,000 cells per well in triplicates and left to adhere overnight. Cells were then treated with HU and Mito-HUs, and the cell confluency was recorded over several days in the IncuCyte Live-Cell Analysis system.

[3] = system: HCT116 human colon cancer cells; assay: as above
[4] = system: MiaPaCa-2 human pancreatic cancer cells; assay: Cell proliferation, IncuCyte Live-Cell Analysis system
From the text: FIG. 7. Effects of HU and Mito10-HU on proliferation of MiaPaCa-2 human pancreatic cancer cells; MiaPaCa-2 cells treated with HU or Mito10-HU were monitored in the IncuCyte Live-Cell Analysis system. Cell proliferation was monitored in real-time with the continuous presence of indicated treatments until the end of each experiment. Data shown are the means±SD.
as §3, §4

[5] = read-out: IC50 proliferation of HCT116 cells

SMILES: Cc1ccc([P+](CCCCCCCCCCONC(N)=O)(c2ccc(C)cc2)c2ccc(C)cc2)cc1.O=C([O-])C(F)(F)F [Mito10-HUtriMe, 10-[(carbamoylamino)oxy]-decyl-tris-p-tolylphosphonium trifluoroacetate]
- effect on complex I-induced oxygen consumption (mitochondrial complex I): more potently than Mito10-HU
- effect on complex III-induced oxygen consumption [1]: more potently than Mito10-HU
- IC50 [2, 5]: 3.7 µM

SMILES: CCOC(=O)Oc1c(OC)cc(C(=O)O[C@@H]2C[C@@H]3CN4CCc5c([nH]c6cc(OC)ccc56)[C@H]4C[C@@H]3[C@H](C(=O)OC)[C@H]2OC)cc1OC [syrosingopine, reference compound]
- effect on cell proliferation, each alone (syrosingopine experiment) ([3]; Mito10-HU (5 μM) or syrosingopine (7.5 μM) independently, HCT116): minimally affected cell proliferation

SMILES: O=C(NO)NC(=O)NCCCCCCCCCC[P+](c1ccccc1)(c1ccccc1)c1ccccc1.O=C([O-])C(F)(F)F [Mito10-HUNHTPP^+, 10-[(hydroxycarbamoyl)carbamoylamino]-decyltriphenylphosphonium trifluoroacetate]
- inhibition of proliferation of HCT116 cells [2]: inhibited HCT116 cell proliferation

- IC50 [2, 5]: > 600 µM
SMILES: CCCCCCCCCCONC(N)=O [Decyl-HU, decyloxyurea, reference compound]

SMILES: Cc1[nH]nc(C(F)(F)F)c1Cc1sc2c(c1C(=O)N1C[C@](C)(O)CO1)c(=O)n(C)c(=O)n2C(C)C [AZD-3965, reference compound]
- antiproliferative effect, each alone (AZD-3965 experiment) ([3]; Mito10-HU (5 μM) or AZD-3965 (100 μM) independently, HCT-116): negligible antiproliferative effects

SMILES: NC(=O)NOCCCC[P+](c1ccccc1)(c1ccccc1)c1ccccc1.O=C([O-])C(F)(F)F [Mito4-HU, 4-[(carbamoylamino)oxy]-butyltriphenylphosphonium trifluoroacetate]
- inhibition of proliferation of MiaPaCa-2 cells [4]: did not inhibit the proliferation
- Cell Confluence (%) ([2]; 100 μM): 92.40%
- Cell Confluence (%) ([2]; 200 μM): 90.77%
- Cell Confluence (%) ([2]; 400 μM): 80.77%
- Cell Confluence (%) ([2]; 600 μM): 47.24%
- inhibition of proliferation of HCT116 cells ([2]; trifluoroacetate): dose-dependently inhibited proliferation; also recorded: lower than that of HU
- IC50 [2, 5]: > 600 µM
- IC50 ([2]; mean ± SD, read-out: IC50 Cell Proliferation (FIG. 1)): > 600 µM

From US20240109925A1, “Enhanced Anti-Proliferative and Antitumor Immune Effects of Mitochondria-Targeted Hydroxyurea” (The Medical College of Wisconsin, Inc., priority 2021, published 2024)
